Results reported in publication PMC12349723, “Computationally accelerated identification of P-glycoprotein inhibitors” (PLOS One, 2025).

Tests used:
[1] = target: T1, P-gp (Homo sapiens, UniProt P08183); assay: LC-MS/MS intracellular accumulation assay with or without tariquidar (P-gp transport substrate test) in DU145-TXR cells; format: in vitro ADME; conditions: for P-gp transport substrate assessment: 5 µM compound with or without 500 nM tariquidar, LC-MS/MS
T1 construct: The MDR, P-gp overexpressing DU145-TXR cells were maintained under positive selection pressure; endogenous in cells; host or cells: DU145-TXR (paclitaxel-resistant sub-line of DU145 human prostate cancer cells)
Description: DU145-TXR cells were seeded at 350,000 cells per well in 6-well plates in complete RPMI medium. […] A full sample of DAU was also prepared for quantitative analysis. […] Media was removed with a glass vacuum aspirator. Cells were re-suspended and washed in 2mL of ice-cold Hank’s Balanced Salt Solution (HBSS, Gibco), and spun again at 2400 rpm. Cell lysates were diluted in 600 µL of ice-cold HBSS, flash-frozen in liquid nitrogen, and stored at −80 °C until analysis. LC-MS/MS intracellular accumulation assays were performed in collaboration with the Pharmacology Core at the University of Texas Southwestern Medical Center (UTSW). […] This method allowed us to quantify the change – if any – in the relative amount of compound present in the samples when TQR was added. An increase in the relative amount of compound indicates enhanced intracellular retention that compound. […] The “Internal Standard” (IS) is a known substance added in a constant amount to each sample. The “Peak Area”, expressed as “counts”, describes the number of MS/MS spectra from the experimental compound and serves as a measure of its relative abundance. […] These values allow a comparison of the relative abundance of compound between the “- TQR” and “+ TQR” samples, and to test for statistically significant differences. LC-MS/MS quantification was performed as follows. Cell lysate was aliquoted into Eppendorf tubes. In contrast to [9], blank cell lysates were not spiked with varying concentrations of each compound to create a standard curve, since compound amounts were normalized to abundance of the internal standard. […] The supernatant was then transferred to an HPCL vial, and subsequently analyzed using LC-MS/MS using a Sciex 4000QTRAP mass spectrometer coupled to a Shimadzu Prominence LC. […] The column flow rate was 1.5 ml/min using an Agilent C18 XDB, 5 micron packing 50 × 4.6 mm column. […] A BSA standard curve was then prepared in water and mixed using the same ratio. […] The ratio of Analyte to Internal Standard was normalized to the lysate content for each individual sample. […] Statistical significance was determined using a Student’s T Test in GraphPad Prism. We aimed to identify P-gp inhibitors that are not transport substrates of the pump itself. […] To test these predictions in vitro, liquid chromatography with tandem mass spectrometry (LC-MS/MS) was used to assess the intracellular accumulation of experimental compounds as described in [9]. […] The relative intracellular accumulation of each experimental compound was then assessed using LC-MS/MS. […] The P-gp substrate and chemotherapeutic daunorubicin (DAU) was used as a positive control for P-gp-mediated transport.

[2] = SWISS-ADME computational analysis of chemical properties; conditions: predicted aqueous solubility compared to that observed in the laboratory
Excerpt: Identifying P-gp inhibitors that are not transport substrates remains inherently challenging. To that end, computational tools such as the SWISS-ADME server attempt to use a molecule’s unique chemical and structural characteristics to predict whether it is likely to be a P-gp transport substrate. Our LC-MS/MS assays allowed us to retroactively test the validity of predictions from SWISS-ADME. […] Alternative identifiers for the molecules identified in this study are shown in S7 Table.
S1 Table. Known P-gp Inhibitors and Predicted Chemical Properties. A non-exhaustive list of known P-gp inhibitors and their selected chemical properties ^[64, 65]. Clinical trial outcomes were adapted from ^[10, 11]. Compounds were evaluated using the SWISS-ADME server ^[54]. […] “Predicted P-gp Substrate” - predicted by SWISS-ADME to be a transport substrate of P-gp. “Known P-gp Substrate” – In addition to being P-gp inhibitors, these molecules are: known transport substrates of P-gp, known non-transport substrates of P-gp, unknown whether it is a transport substrate of P-gp ^[66-68]. If the molecule is designated in a specific generation of P-gp inhibitors - First Generation P-gp inhibitors, Second generation P-gp inhibitors, Third generation P-gp inhibitors.

[3] = Resazurin cell viability pre-screen in DU145-TXR cells with or without PTX; format: cell-based; conditions: human, mean of two experiments in triplicate, read-out: Viability, 15 µM compound alone
Description: Culture of the DU145, DU145-TXR, and HFL1 cell lines was performed as described in [8]. Culture of the A2780 and A2780-ADR cell lines was performed as described in [9]. MTT assays were performed as described in [8] with minor modifications. LC-MS/MS accumulation assays were performed as described in {Nanayakkara, 2018 #173} [9] with some modifications. […] The inhibitor concentration was lowered to 15 µM here, as the goal of the study was to identify compounds that were effective in reversing MDR at low concentrations, and to determine if the expanded virtual-assisted methods improved on our first-draft attempt. Compounds 56–98 were pre-screened using Resazurin cell viability assays: cells were incubated with 15 µM compound with or without 500 nM PTX for 48 hours, after which cell survival was assessed similar to [39]. Data represent the mean of two separate experiments, with n = 3 samples per experiment (n = 6 total) (S4 Table). The top performing compounds from this initial screen were re-tested with MTT viability assays against DU145-TXR cells, as described below.
S4 Table. Pre-screening of compounds 56 – 98 against DU145-TXR cells with resazurin assays. DU145-TXR cells were incubated with 15 µM compound with or without 500nM PTX for 48 hrs; survival was subsequently determined with the Resazurin viability assay ^[37]. […] Percent re-sensitization is defined as the percent change in viability between cells treated with compound and PTX, versus cells treated with PTX alone. In some instances, the assay reported an increase in viability with compound + PTX, and no percent sensitization is reported. ‘Follow-up Testing’ compounds were re-assessed with MTT assays (Figure 1). Compounds 59 and 89 (*, ‘Follow-up Testing’) were used as negative controls in follow-up MTT assays to test for consistency of results, e.g. to confirm that molecules eliminated in Resazurin assays were justifiably eliminated from later screening with MTT assays.

[4] = DU145-TXR, 5 µM compound, 2.5 h, with 500 nM tariquidar, mean ± SD, triplicate
[5] = DU145-TXR, 5 µM compound, 2.5 h, without tariquidar, mean ± SD, triplicate
[6] = significant difference = likely P-gp transport substrate

T1 sequence (P08183 whole entry): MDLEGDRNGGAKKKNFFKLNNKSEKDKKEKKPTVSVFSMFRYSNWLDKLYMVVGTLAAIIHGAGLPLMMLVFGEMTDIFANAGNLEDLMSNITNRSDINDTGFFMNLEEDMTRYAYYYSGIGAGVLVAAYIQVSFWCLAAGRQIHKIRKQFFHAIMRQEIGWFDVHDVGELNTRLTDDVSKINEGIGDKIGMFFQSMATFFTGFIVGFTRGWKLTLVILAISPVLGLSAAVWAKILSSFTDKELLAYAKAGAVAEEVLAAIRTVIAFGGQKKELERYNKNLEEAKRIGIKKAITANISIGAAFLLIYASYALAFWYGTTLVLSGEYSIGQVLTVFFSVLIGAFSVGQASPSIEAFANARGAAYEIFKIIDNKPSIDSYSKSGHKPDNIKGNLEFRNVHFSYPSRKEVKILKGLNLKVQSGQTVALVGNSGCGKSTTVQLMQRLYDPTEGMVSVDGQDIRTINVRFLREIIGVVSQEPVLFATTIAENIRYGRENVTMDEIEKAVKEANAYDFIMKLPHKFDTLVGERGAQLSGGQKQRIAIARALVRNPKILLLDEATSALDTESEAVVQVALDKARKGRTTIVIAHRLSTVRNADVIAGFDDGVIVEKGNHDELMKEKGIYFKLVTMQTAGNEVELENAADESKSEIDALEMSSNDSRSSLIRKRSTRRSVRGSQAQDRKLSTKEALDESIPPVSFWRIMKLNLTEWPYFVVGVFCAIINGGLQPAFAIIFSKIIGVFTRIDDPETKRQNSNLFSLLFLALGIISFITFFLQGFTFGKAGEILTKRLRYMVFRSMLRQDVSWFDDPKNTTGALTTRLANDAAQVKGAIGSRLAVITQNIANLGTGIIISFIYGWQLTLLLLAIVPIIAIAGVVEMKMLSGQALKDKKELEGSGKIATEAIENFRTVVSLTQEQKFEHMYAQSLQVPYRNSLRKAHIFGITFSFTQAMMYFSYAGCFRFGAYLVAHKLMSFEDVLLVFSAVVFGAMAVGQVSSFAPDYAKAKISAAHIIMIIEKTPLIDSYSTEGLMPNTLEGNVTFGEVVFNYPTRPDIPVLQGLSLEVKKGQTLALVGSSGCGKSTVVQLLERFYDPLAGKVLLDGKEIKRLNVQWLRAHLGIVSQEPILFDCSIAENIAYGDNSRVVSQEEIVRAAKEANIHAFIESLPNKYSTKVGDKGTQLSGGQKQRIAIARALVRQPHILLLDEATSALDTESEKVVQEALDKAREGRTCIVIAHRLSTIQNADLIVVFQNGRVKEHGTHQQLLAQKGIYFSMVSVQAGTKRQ

For `COc1cccc(N2CCN(c3ccc4nnc(CCC(=O)Nc5ccc(F)c(F)c5)n4n3)CC2)c1` [Compound 101, COc1cccc(c1)N1CCN(CC1)c1ccc2nnc(CCC(=O)Nc3ccc(F)c(F)c3)n2n1], the “P-gp transport substrate assessment” value ([1]; DU145-TXR, 2.5 h) was “unlikely to be transport substrates of P-gp”, the “Intracellular accumulation (normalized ratio of compound to internal standard), Trial 1, + TQR” value [1, 4] was 12.03 ± 2.45 and the “Intracellular accumulation (normalized ratio of compound to internal standard), Trial 2, + TQR” value [1, 4] was 22.88 ± 2.92. For the same compound, the “Intracellular accumulation (normalized ratio of compound to internal standard), Trial 1, - TQR” value [1, 5] was 11.86 ± 1.16, the “Intracellular accumulation (normalized ratio of compound to internal standard), Trial 2, - TQR” value [1, 5] was 21.17 ± 3.59 and the “P (- TQR vs + TQR), Trial 1” value ([1]; Student's T test of the mean) was 0.9. For the same compound, the “P (- TQR vs + TQR), Trial 2” value ([1]; Student's T test of the mean) was 0.6, the “Significance of accumulation with tariquidar, Trial 1” value (“Significance … Trial 1” for short) [1, 6] was “N.S. (P > 0.05 = not significant (N.S.))” and the “Significance of accumulation with tariquidar, Trial 2” value (“Significance … Trial 2” for short) [1, 6] was “N.S. (P > 0.05 = not significant (N.S.))”. For the same compound, the “Correct Water Solubility Prediction?” value [2] was “Yes”.

For `O=C(c1nc(-c2ccccn2)no1)N1CCN(c2nsc3ccccc23)CC1` [Compound 124, O=C(N1CCN(CC1)c1nsc2ccccc12)c1nc(no1)-c1ccccn1], the “P-gp transport substrate assessment” value ([1]; DU145-TXR, 2.5 h) was “potential P-gp transport substrates”, the “Intracellular accumulation (normalized ratio of compound to internal standard), Trial 1, + TQR” value [1, 4] was 0.061 ± 0.011 and the “Intracellular accumulation (normalized ratio of compound to internal standard), Trial 2, + TQR” value [1, 4] was 0.055 ± 0.009. The “Intracellular accumulation (normalized ratio of compound to internal standard), Trial 1, - TQR” value [1, 5] was 0.006 ± 0.001, the “Intracellular accumulation (normalized ratio of compound to internal standard), Trial 2, - TQR” value [1, 5] was 0.007 ± 0.002 and the “P (- TQR vs + TQR), Trial 1” value ([1]; Student's T test of the mean) was 0.001. For the same compound, the “P (- TQR vs + TQR), Trial 2” value ([1]; Student's T test of the mean) was 0.0008, the “Significance … Trial 1” value [1, 6] was “** (P < 0.01 = **)” and the “Significance … Trial 2” value [1, 6] was “*** (P < 0.001 = ***)”. For the same compound, the “Correct Water Solubility Prediction?” value [2] was “Yes”.

With `Cc1ccc(-c2noc(-c3cn(Cc4ccc(NS(=O)(=O)c5ccccc5F)cc4)cn3)n2)cc1` [Compound 103, Cc1ccc(cc1)-c1noc(n1)-c1cn(Cc2ccc(NS(=O)(=O)c3ccccc3F)cc2)cn1] the “P-gp transport substrate assessment” value ([1]; DU145-TXR, 2.5 h) was “potential P-gp transport substrates”, the “Intracellular accumulation (normalized ratio of compound to internal standard), Trial 1, + TQR” value [1, 4] was 5.61 ± 1.34 and the “Intracellular accumulation (normalized ratio of compound to internal standard), Trial 2, + TQR” value [1, 4] was 3.75 ± 0.34. The “Intracellular accumulation (normalized ratio of compound to internal standard), Trial 3, + TQR” value [1, 4] was 3.73 ± 0.15, the “Intracellular accumulation (normalized ratio of compound to internal standard), Trial 1, - TQR” value [1, 5] was 5.13 ± 0.6 and the “Intracellular accumulation (normalized ratio of compound to internal standard), Trial 2, - TQR” value [1, 5] was 2.63 ± 0.52. The “Intracellular accumulation (normalized ratio of compound to internal standard), Trial 3, - TQR” value [1, 5] was 3.21 ± 0.23, the “P (- TQR vs + TQR), Trial 1” value ([1]; Student's T test of the mean) was 0.6 and the “P (- TQR vs + TQR), Trial 2” value ([1]; Student's T test of the mean) was 0.04. For the same compound, the “P (- TQR vs + TQR), Trial 3” value ([1]; Student's T test of the mean) was 0.03, the “Significance … Trial 1” value [1, 6] was “N.S. (P > 0.05 = not significant (N.S.))” and the “Significance … Trial 2” value [1, 6] was “* (P < 0.05 = *)”. The “Significance of accumulation with tariquidar, Trial 3” value [1, 6] was “* (P < 0.05 = *)” and the “Correct Water Solubility Prediction?” value [2] was “No”.

In the case of `NS(=O)(=O)c1cccc(NC(=O)CSc2nnnn2C2CC2)c1` [Compound 89, NS(=O)(=O)c1cccc(NC(=O)CSc2nnnn2C2CC2)c1], the “Correct Water Solubility Prediction?” value [2] is reported as “Yes” and the viability at 48 h, 15 µM [3] is reported as 93.7%.

With `O=C(NCc1cccc(F)c1)c1nnn2c1Sc1c(C(=O)NCc3cccc(F)c3)nnn1CC2` [Compound 122, Fc1cccc(CNC(=O)c2nnn3CCn4nnc(C(=O)NCc5cccc(F)c5)c4Sc23)c1] the “P-gp transport substrate assessment” value ([1]; DU145-TXR, 2.5 h) was “potential P-gp transport substrates”, the “Intracellular accumulation (normalized ratio of compound to internal standard), Trial 1, + TQR” value [1, 4] was 0.146 ± 0.018 and the “Intracellular accumulation (normalized ratio of compound to internal standard), Trial 2, + TQR” value [1, 4] was 0.209 ± 0.014. For the same compound, the “Intracellular accumulation (normalized ratio of compound to internal standard), Trial 1, - TQR” value [1, 5] was 0.049 ± 0.005, the “Intracellular accumulation (normalized ratio of compound to internal standard), Trial 2, - TQR” value [1, 5] was 0.058 ± 0.018 and the “P (- TQR vs + TQR), Trial 1” value ([1]; Student's T test of the mean) was 0.0008. The “P (- TQR vs + TQR), Trial 2” value ([1]; Student's T test of the mean) was 0.0003, the “Significance … Trial 1” value [1, 6] was “*** (P < 0.001 = ***)” and the “Significance … Trial 2” value [1, 6] was “*** (P < 0.001 = ***)”. The “Correct Water Solubility Prediction?” value [2] was “Yes”.

Compound `COc1cc2c(cc1OC)CN(CCc1ccc(NC(=O)c3cc(OC)c(OC)cc3NC(=O)c3cnc4ccccc4c3)cc1)CC2` [Tariquidar, reference compound] has a viability at 48 h, 15 µM [3] of 75.2%.

In the case of `Cc1onc(-c2ccccc2)c1-c1nnc(Cn2cnc3ccccc3c2=O)o1` [Compound 111, Cc1onc(c1-c1nnc(Cn2cnc3ccccc3c2=O)o1)-c1ccccc1], the “P-gp transport substrate assessment” value ([1]; DU145-TXR, 2.5 h) is reported as “unlikely to be transport substrates of P-gp”, the “Intracellular accumulation (normalized ratio of compound to internal standard), Trial 1, + TQR” value [1, 4] is reported as 0.013 ± 0.004 and the “Intracellular accumulation (normalized ratio of compound to internal standard), Trial 2, + TQR” value [1, 4] is reported as 0.013 ± 0.001. For the same compound, the “Intracellular accumulation (normalized ratio of compound to internal standard), Trial 1, - TQR” value [1, 5] was 0.012 ± 0.002, the “Intracellular accumulation (normalized ratio of compound to internal standard), Trial 2, - TQR” value [1, 5] was 0.011 ± 0.002 and the “P (- TQR vs + TQR), Trial 1” value ([1]; Student's T test of the mean) was 0.7. For the same compound, the “P (- TQR vs + TQR), Trial 2” value ([1]; Student's T test of the mean) was 0.2, the “Significance … Trial 1” value [1, 6] was “N.S. (P > 0.05 = not significant (N.S.))” and the “Significance … Trial 2” value [1, 6] was “N.S. (P > 0.05 = not significant (N.S.))”. For the same compound, the “Correct Water Solubility Prediction?” value [2] was “Yes”.

For `Cn1cnnc1SCc1c(C(=O)O)nnn1-c1nonc1N` [Compound 59, Cn1cnnc1SCc1c(nnn1-c1nonc1N)C(O)=O], the “Correct Water Solubility Prediction?” value [2] was “Yes” and the viability at 48 h, 15 µM [3] was 101%.
